Measured values: article PMC4868737, “BAY 1024767 blocks androgen receptor mutants found in castration-resistant prostate cancer patients” (Oncotarget, 2016)
Changes are numbered by the printed parent chain.

Experiments:
[1] = tested on: PSA and FKBP5 expression in VCaP cells (AR wild-type); experiment: mRNA expression of androgen target genes (real-time PCR); format: cell-based, human; conditions: 1 nM R1881, 24 h
Method: (§1) VCaP or LNCaP cells were seeded into 6-well plates in RPMI 1640 medium without phenol red, supplemented with 10% charcoal-stripped fetal calf serum (cFCS) and 2 mM stable glutamine, and maintained for 2 days prior to treatment. […] After 24 h treatment, total RNA was extracted using the RNeasy Mini Kit (Qiagen, Hilden, Germany) and reverse-transcription was performed using the SuperScript™ III First-Strand Synthesis SuperMix for qRT-PCR (Invitrogen, Carlsbad, […]). Transcript levels of AR target genes were determined by real-time PCR using the following assays (Applied Biosystems, Foster City, CA, USA): PSA Hs02576345_m1 and FKBP5 Hs00188025_m1. Human PPIA (Cyclophilin A) 4326316E was used as an internal control.

[2] = tested on: PSA and FKBP5 expression in LNCaP cells (AR T877A mutant); experiment: as above; format: cell-based, human; conditions: 1 nM R1881, 24 h
Method: as §1

AR W741C = target: T1, AR W741C (Homo sapiens, UniProt P10275, W742C); experiment: cell-based; conditions: IC50 (antagonistic activity)
T1 sequence (P10275 1-920 W742C): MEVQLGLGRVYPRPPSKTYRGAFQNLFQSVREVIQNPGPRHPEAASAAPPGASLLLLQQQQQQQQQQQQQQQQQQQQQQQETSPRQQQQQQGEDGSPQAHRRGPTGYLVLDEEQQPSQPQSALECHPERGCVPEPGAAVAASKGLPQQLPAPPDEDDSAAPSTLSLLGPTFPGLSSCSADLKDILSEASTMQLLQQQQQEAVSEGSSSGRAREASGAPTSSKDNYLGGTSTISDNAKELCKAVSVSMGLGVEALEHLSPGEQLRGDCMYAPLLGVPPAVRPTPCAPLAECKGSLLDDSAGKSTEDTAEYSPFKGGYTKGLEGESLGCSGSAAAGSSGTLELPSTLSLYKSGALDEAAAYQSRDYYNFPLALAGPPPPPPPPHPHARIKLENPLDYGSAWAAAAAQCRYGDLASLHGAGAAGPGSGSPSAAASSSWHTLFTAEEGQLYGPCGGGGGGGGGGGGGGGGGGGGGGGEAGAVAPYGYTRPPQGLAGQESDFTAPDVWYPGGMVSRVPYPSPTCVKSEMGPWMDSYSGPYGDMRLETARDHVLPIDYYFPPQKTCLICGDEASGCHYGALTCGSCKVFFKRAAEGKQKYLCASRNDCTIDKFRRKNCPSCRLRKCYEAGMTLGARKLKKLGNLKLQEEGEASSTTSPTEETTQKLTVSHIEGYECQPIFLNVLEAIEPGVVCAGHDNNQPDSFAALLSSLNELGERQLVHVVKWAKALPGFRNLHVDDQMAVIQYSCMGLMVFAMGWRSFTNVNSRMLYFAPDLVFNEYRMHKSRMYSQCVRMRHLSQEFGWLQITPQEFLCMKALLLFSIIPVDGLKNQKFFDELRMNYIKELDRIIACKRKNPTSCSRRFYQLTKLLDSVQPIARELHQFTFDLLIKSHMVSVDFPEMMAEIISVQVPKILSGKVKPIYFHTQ

[3] = tested on: 22Rv1 (AR H874Y, splice variants); experiment: Cell proliferation assay (Alamar Blue); format: cell-based; conditions: Homo sapiens, 22Rv1, 168 h
Method: (§2) All assays were performed in 96-well microtiter plates. […] LAPC-4 cells were plated at 4,000 cells/well, VCaP cells at 16,000 cells/well, LNCaP cells at 2,000 cells/well, 22Rv1 cells at 4,000 cells/well. After 1 day, the cells were treated with R1881 (0.1 nM final concentration, except for LAPC-4 where the final concentration was 1 nM) and compound (day 0). Cell number was determined by Alamar Blue staining (2 h). Fluorescence was measured in a Victor3 device (PerkinElmer, Waltham, MA, USA) with the excitation filter set at 530 nm and the emission filter set at 590 nm. C0 was defined as the signal measured at day 7 for cells treated only with R1881 and CI was defined as the signal measured at day 7 for cells grown without R1881 or compound.

LAPC-4 (AR wild-type) = experiment: Cell proliferation assay (Alamar Blue); format: cell-based; conditions: Homo sapiens, LAPC4, 168 h
Method: as §2

LNCaP (AR 877A) = experiment: Cell proliferation assay (Alamar Blue); format: cell-based; conditions: Homo sapiens, 168 h
Method: as §2

[4] = tested on: VCaP (AR wild-type, overexpressed); experiment: Cell proliferation assay (Alamar Blue); format: cell-based; conditions: Homo sapiens, 168 h
Method: as §2

AR wild-type = target: T2, AR wild-type (Homo sapiens, UniProt P10275); experiment: cell-based; conditions: IC50 (antagonistic activity)
T2 sequence (P10275 1-920): T1 sequence (P10275 1-920 W742C) with C742W

CC(C)(O)COc1ccc(CN2C(=S)N(c3ccc(C#N)c(C(F)(F)F)c3)C(=O)C2(C)C)cn1 [BAY 1024767]
PSA and FKBP5 expression [1]: dose-dependent down-regulations
PSA and FKBP5 expression [2]: dose-dependent down-regulations
IC50 (AR W741C; R1881 0.1 nM): 49 nM
IC50 (AR W741C; R1881 1 nM): 190 nM
IC50 (AR W741C; R1881 10 nM): 890 nM
GI50 [3]: 41 nM
GI50 (LAPC-4 (AR wild-type)): 46 nM
GI50 (LNCaP (AR 877A)): 221 nM
GI50 [4]: 229 nM
IC50 (AR wild-type; R1881 0.1 nM): 46 nM
IC50 (AR wild-type; R1881 1 nM): 260 nM
IC50 (AR wild-type; R1881 10 nM): 1600 nM
